# From US20030083469A1, “Allosteric control of nuclear hormone receptors” (The Salk Institute for Biological Studies, priority 1995, published 2003)
# Key:
# Nurrl+RXR LBD = target: T1, Nurrl+RXR LBD (Homo sapiens, UniProt P19793); test: Transient transfection of Nurrl with RXR LBD on NBRE x3 reporter; format: cell-based, mouse Nurrl, human RXRα; details: NBRE×3; 100 nM LG69
# T1 construct: or the human RXRα LBD (Glu 203 -Thr 462); expressed in transfected cells; host or cells: CV-1
# Experimental: CV-1 cells were grown in Dulbecco's Modified Eagle's medium supplemented with 10% resin-charcoal stripped (Samuels et al., Endocrinology 105:80-85 (1979)) fetal bovine serum, 50 U/ml penicillin G and 50 μg/ml streptomycin sulfate (DMEM-FBS) at 37° C. in 5% CO2. One day prior to transfection, cells were plated to 50-80% confluence using phenol-red free DMEM-FBS. Cells were transfected by lipofection using N-{2-(2,3)-dioleoyloxy)propyl-N,N,N-trimethyl ammonium methyl sulfate} according to the manufacturer's instructions (DOTAP, Boehringer Mannheim). […] Cells were harvested and assayed for luciferase and β-galactosidase activity. All points were performed in triplicate in each experiment and varied by less than 10%. Each experiment was repeated three or more times with similar results.
# This prompted an investigation of the question of whether the RXR DBD is required for activation through the Nurrl pathway. Thus, CV-1 cells were transfected with TK-LUC reporters (300 ng/10^5 cells), CMX-βgal (500 ng/10^5 cells) and the indicated CMX-receptor construct (20 ng/10^5 cells; see FIG. 7D) with or without CMX-RXR-LBD (100 ng/10^5 cells) . […] Normalized luciferase activity was determined and plotted as percent of maximal fold-activation where 100% is defined as the fold activation by T3R, RAR, VDR, the RXR LBD, or Nurrl+RXR LBD. […]
# GAL-RXR+T3R LBD = target: T2, GAL-RXR+T3R LBD (Homo sapiens, UniProt P10828+P19793); test: Transient transfection analysis of GAL-RXR LBD in the presence of T3R LBD; format: cell-based
# T2 construct: human RXRα LBD (Glu 203 - Thr 462); human T3Rβ LBD (Leu 173 - Asp 456); expressed in transfected cells; host or cells: CV-1
# T2 sequence (P19793 203-462 limits assumed): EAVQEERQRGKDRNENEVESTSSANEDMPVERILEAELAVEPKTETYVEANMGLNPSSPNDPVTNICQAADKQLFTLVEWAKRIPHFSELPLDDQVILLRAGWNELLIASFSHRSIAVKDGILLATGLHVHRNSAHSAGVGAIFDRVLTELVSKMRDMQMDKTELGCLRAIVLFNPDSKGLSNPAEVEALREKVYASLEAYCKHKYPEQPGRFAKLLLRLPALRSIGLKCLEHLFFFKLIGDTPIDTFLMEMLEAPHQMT
# T2 sequence (P10828 178-461 limits assumed): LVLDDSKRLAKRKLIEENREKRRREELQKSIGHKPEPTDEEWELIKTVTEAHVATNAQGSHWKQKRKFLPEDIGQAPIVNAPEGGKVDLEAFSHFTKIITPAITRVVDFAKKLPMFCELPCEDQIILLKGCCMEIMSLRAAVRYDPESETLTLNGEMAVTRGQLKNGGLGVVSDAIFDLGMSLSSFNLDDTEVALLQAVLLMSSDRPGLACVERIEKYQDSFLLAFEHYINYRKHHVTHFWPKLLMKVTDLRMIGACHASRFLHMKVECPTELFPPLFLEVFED
# Experimental: (§1) One day prior to transfection, cells were plated to 50-80% confluence using phenol-red free DMEM-FBS. Cells were transfected by lipofection using N-{2-(2,3)-dioleoyloxy)propyl-N,N,N-trimethyl ammonium methyl sulfate} according to the manufacturer's instructions (DOTAP, Boehringer Mannheim).
# Normalized luciferase activity was determined and plotted as fold-activation relative to untreated cells.
# GST-hRXRα = target: T3, GST-hRXRα (Homo sapiens, UniProt P19793); test: Ligand binding assay with GST-RXR (glutathione-sepharose); details: 50 nM [3H] LG69; 2 μM unlabeled ligand
# T3 construct: made in house
# T3 sequence (P19793 1-462): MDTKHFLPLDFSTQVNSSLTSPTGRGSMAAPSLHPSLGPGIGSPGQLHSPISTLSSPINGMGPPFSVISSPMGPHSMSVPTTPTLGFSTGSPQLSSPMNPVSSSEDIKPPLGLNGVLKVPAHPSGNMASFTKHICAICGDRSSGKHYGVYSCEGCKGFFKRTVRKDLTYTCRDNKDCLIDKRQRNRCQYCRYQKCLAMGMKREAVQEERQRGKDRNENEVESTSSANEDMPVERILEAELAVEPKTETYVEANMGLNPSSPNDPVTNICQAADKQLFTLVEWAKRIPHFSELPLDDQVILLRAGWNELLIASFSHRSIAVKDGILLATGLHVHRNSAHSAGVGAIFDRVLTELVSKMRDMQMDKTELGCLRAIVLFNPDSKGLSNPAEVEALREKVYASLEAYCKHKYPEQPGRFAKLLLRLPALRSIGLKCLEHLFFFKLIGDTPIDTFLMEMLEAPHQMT
# T3R-RXR heterodimers = target: T4, T3R-RXR heterodimers (Homo sapiens, UniProt P10828+P19793); test: Transient transfection analysis of T3R-RXR heterodimers (TK-LUC reporter, CV-1 cells); format: cell-based
# T4 construct: transient transfection analysis of full-length Nurrl and/or RXR; expressed in transfected cells; host or cells: CV-1
# T4 sequence (P10828 1-461): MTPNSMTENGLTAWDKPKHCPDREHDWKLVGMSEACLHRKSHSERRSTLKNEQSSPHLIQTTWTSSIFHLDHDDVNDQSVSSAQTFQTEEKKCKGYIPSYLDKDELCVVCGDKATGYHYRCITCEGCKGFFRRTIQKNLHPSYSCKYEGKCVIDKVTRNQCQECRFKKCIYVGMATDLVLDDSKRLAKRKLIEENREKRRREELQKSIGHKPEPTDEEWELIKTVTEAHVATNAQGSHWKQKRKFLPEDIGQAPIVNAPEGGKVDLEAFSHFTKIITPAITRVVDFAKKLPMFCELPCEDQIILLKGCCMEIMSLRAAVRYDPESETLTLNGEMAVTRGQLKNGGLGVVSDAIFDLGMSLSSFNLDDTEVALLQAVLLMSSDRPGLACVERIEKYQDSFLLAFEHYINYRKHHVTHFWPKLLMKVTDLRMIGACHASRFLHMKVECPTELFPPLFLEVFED
# T4 sequence (P19793 1-462): T3 sequence (P19793 1-462)
# Experimental: as §1
# Since T3R and RAR function as heterodimers with RXR, RXR responsiveness was examined in the context of RXR-T3R and RXR-RAR heterodimers. Attention is directed to FIG. 2, wherein transient transfection analysis of T^3R-RXR and RAR-RXR heterodimers is described. Reporter constructs employed contain the HRE indicated in the figure, cloned upstream of the TK-LUC reporter. In the left panel of the figure, CV-1 cells were transfected with the following plasmids: HRE×2 - TK-LUC (300 ng/10^5 cells), CMX-hT3Rβ (20 ng/10^5 cells), CMX-hRXRα (20 ng/10^5 cells) and the internal control CMX-βgal (500 ng/10^5 cells) .
# T1 sequence (Q06219 whole entry partner, one chain of several, the tested form may be a part): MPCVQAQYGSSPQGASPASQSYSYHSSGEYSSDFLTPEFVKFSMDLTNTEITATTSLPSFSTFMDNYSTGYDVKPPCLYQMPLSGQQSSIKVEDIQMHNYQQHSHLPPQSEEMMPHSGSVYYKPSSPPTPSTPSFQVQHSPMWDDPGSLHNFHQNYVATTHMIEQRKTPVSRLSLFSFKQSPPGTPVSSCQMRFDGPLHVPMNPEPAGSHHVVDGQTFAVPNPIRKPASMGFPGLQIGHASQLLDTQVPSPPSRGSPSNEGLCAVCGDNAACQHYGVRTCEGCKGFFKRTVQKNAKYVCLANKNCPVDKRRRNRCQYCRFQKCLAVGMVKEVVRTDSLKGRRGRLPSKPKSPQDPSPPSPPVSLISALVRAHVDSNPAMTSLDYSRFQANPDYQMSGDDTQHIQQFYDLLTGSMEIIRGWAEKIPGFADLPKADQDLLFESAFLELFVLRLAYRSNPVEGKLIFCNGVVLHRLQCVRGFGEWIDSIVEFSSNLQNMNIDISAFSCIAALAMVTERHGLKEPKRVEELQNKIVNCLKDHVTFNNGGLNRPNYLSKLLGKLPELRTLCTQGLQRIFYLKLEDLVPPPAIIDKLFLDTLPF
smiles,measurement,setting,value
"CC=C(c1ccc(C(=O)O)cc1)c1cc2c(cc1C)C(C)(C)CCC2(C)C [LG69, 4-{1-(3,5,5,8,8-pentamethyl-5,6,7,8-tetrahydro-2-napthalenyl)-1-propenyl}benzoic acid]",LG69 responsiveness conferred upon Nurrl by the RXR LBD,Nurrl+RXR LBD,strong
same,activity of T3+LG69 compared with T3 alone,GAL-RXR+T3R LBD; 100 nM T3+100 nM LG69,slightly less activity
same,fold response to LG69,"GAL-RXR+T3R LBD; GAL-RXR+T3R LBD (unliganded), 100 nM LG69",57 fold
same,competition of [3H] LG69 binding to GST-RXR by unlabeled ligand,GST-hRXRα,specifically completed
same,effect of LG69 added to T3 on the response to T3,T3R-RXR heterodimers; 100 nM T3+100 nM LG69 versus T3 alone,somewhat reduced
same,responsiveness of transfected cells to ligand (luciferase fold-activation),"T3R-RXR heterodimers; CV-1 cells transfected with T3Rβ and RXRα, 100 nM T3 or 100 nM LG69",not responsive
